Assay results taken from paper PMC13315578.

T1: Min Elp3 (Methanocaldococcus infernus, UniProt D5VRB9)
T1 construct: gene Metin_0452; E. coli codon-optimized gene, N-terminal 6xHis tag with TEV site (pET28a-tev), tag kept for MST; E. coli BL21(DE3) host with isc operon; anaerobically purified, [4Fe-4S] cluster chemically reconstituted
T1 sequence (D5VRB9 1-534): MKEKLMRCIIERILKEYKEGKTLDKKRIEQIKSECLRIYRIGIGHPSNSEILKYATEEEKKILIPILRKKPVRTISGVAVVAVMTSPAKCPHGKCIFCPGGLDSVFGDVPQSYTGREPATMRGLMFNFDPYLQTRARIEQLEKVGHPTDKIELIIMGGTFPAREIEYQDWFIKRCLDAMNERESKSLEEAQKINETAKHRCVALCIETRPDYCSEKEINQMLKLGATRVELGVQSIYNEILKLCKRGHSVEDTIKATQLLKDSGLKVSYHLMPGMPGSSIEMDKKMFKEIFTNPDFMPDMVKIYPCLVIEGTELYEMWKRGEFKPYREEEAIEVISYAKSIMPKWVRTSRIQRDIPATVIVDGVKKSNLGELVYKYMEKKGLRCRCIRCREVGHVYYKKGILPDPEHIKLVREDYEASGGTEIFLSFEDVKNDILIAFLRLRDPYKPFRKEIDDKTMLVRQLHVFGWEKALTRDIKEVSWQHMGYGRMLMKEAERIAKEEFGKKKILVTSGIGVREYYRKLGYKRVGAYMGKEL

T2: Min Elp3 WT (Methanocaldococcus infernus, UniProt D5VRB9 1-534)
T2 sequence: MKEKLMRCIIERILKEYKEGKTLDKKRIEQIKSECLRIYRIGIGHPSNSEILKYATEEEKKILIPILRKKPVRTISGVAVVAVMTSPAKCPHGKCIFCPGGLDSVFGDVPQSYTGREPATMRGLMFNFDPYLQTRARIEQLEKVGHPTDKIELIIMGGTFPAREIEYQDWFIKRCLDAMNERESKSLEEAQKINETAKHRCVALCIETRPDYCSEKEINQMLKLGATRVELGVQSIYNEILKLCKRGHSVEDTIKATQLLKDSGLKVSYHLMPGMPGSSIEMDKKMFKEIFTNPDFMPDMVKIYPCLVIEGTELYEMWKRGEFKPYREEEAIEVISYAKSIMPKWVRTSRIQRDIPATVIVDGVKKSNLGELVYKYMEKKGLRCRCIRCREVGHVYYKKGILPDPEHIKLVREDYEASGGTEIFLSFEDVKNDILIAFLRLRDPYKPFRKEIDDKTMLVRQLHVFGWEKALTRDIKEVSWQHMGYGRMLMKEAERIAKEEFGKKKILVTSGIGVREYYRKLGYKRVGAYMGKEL


What was measured:
Min Elp3 [1] = target: T1, Min Elp3; assay: microscale thermophoresis, hill fit; assay type: binding; conditions: anaerobic, pH 7.5, room temperature; His-tagged protein labelled with iFluor 647-Tris NTA; no tRNA
Min Elp3 [2] = target: T3, Min Elp3 (Methanocaldococcus infernus, UniProt D5VRB9, Y304A); assay: microscale thermophoresis, hill fit; assay type: binding; conditions: anaerobic, pH 7.5, room temperature; His-tagged protein labelled with iFluor 647-Tris NTA; no tRNA
T3 construct: gene Metin_0452; E. coli codon-optimized gene, N-terminal 6xHis tag with TEV site (pET28a-tev), tag kept for MST; E. coli BL21(DE3) host with isc operon; anaerobically purified, [4Fe-4S] cluster chemically reconstituted

Min Elp3 [3] = target: T4, Min Elp3 (Methanocaldococcus infernus, UniProt D5VRB9, M156W); assay: microscale thermophoresis, hill fit; assay type: binding; conditions: anaerobic, pH 7.5, room temperature; His-tagged protein labelled with iFluor 647-Tris NTA; no tRNA
T4 construct: gene Metin_0452; E. coli codon-optimized gene, N-terminal 6xHis tag with TEV site (pET28a-tev), tag kept for MST; E. coli BL21(DE3) host with isc operon; anaerobically purified, [4Fe-4S] cluster chemically reconstituted

Min Elp3 [4] = target: T5, Min Elp3 (Methanocaldococcus infernus, UniProt D5VRB9, K302A); assay: microscale thermophoresis, hill fit; assay type: binding; conditions: anaerobic, pH 7.5, room temperature; His-tagged protein labelled with iFluor 647-Tris NTA; no tRNA
T5 construct: gene Metin_0452; E. coli codon-optimized gene, N-terminal 6xHis tag with TEV site (pET28a-tev), tag kept for MST; E. coli BL21(DE3) host with isc operon; anaerobically purified, [4Fe-4S] cluster chemically reconstituted

Min Elp3 [5] = target: T6, Min Elp3 (Methanocaldococcus infernus, UniProt D5VRB9, E207A); assay: microscale thermophoresis, hill fit; assay type: binding; conditions: anaerobic, pH 7.5, room temperature; His-tagged protein labelled with iFluor 647-Tris NTA; no tRNA
T6 construct: gene Metin_0452; E. coli codon-optimized gene, N-terminal 6xHis tag with TEV site (pET28a-tev), tag kept for MST; E. coli BL21(DE3) host with isc operon; anaerobically purified, [4Fe-4S] cluster chemically reconstituted

Min Elp3 WT = target: T2, Min Elp3 WT; assay: EMSA; EMSA: 250 nM tRNA, 0-20 uM Elp3, 100 mM HEPES pH 7.5, 750 mM NaCl, 25 mM DTT, 20 °C 30 min; 5% TBE gel at 4 °C; conditions: protein: recombinant; tags: N-terminal 6xHis-TEV site (pET28a-tev); tRNA fold, annealed

T4 sequence (D5VRB9 whole entry M156W): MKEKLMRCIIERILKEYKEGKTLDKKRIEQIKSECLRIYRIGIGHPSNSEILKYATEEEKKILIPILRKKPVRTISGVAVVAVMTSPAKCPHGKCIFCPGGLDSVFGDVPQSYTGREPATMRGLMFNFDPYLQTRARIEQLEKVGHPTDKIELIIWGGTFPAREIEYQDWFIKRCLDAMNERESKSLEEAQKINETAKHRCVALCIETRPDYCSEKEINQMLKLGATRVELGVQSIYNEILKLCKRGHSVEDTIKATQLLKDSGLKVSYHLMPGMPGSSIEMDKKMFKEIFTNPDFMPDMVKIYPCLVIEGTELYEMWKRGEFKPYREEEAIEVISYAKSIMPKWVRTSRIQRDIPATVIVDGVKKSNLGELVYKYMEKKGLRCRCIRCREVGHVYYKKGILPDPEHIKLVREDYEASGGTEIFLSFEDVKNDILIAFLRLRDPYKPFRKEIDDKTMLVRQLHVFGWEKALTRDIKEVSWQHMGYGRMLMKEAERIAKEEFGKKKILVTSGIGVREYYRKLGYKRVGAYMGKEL
T5 sequence (D5VRB9 whole entry K302A): as the sequence (D5VRB9 whole entry M156W) above, with W156M, K302A counted along it
T3 sequence (D5VRB9 whole entry Y304A): as the sequence (D5VRB9 whole entry M156W) above, with W156M, Y304A counted along it
T6 sequence (D5VRB9 whole entry E207A): as the sequence (D5VRB9 whole entry M156W) above, with W156M, E207A counted along it

Molecule	KD (Min Elp3 [1])	KD (Min Elp3 [2])	KD (Min Elp3 [3])	KD (Min Elp3 [4])	KD (Min Elp3 [5])	binding result (Min Elp3 WT)
C[S+](CC[C@H](N)C(=O)O)C[C@H]1O[C@@H](n2cnc3c(N)ncnc32)[C@H](O)[C@@H]1O (stereo partly drawn) [SAM]	Elp3-SAM binding was measured by triplicate microscale thermophoresis (MST) assays	Y304A (cyan triangles) mutants bind cofactor SAM with comparable affinity to WT Elp3	Elp3 M156W (light blue squares) binds cofactor SAM with comparable affinity to WT Elp3	K302A (light blue squares), and Y304A (cyan triangles) mutants bind cofactor SAM	E207A (dark blue triangles), K302A (light blue squares), and Y304A (cyan triangles) mutants bind cofactor SAM	–
tRNA ArgUCU (structured_RNA) RNA: GGACCCGUAGCCUAGCCUGGAUAGGGCACCGGCCUUCUAAGCCGGGGGUCGGGGGUUCAAAUCCCCCCGGGUCCGCCA	–	–	–	–	–	binds
